Experimental data: ChEMBL document CHEMBL1128634, “Piperidine-ether based hNK1 antagonists 2: Investigation of the effect of N-substitution” (Bioorg Med Chem Lett, 1995)
Blank lines part the entries; values can stand above or below the compound they belong to.

What was measured:
[1] = pKa value of the compound; assay type: physicochemical
[2] = Inhibition of [3H]diltiazem binding to L-type calcium channel of rabbit skeletal muscle at 30 uM; assay type: functional; conditions: Oryctolagus cuniculus, Muscle tissue
[3] = Inhibition of [3H]diltiazem binding to L-type calcium channel of rabbit skeletal muscle; assay type: functional, tissue-based, Oryctolagus cuniculus, Muscle tissue
Substance-K receptor = target: T1, Substance-K receptor (Homo sapiens, UniProt P21452); assay: Tested for inhibition of human Neurokinin Tachykinin receptor 2.
T1 sequence (P21452 whole entry): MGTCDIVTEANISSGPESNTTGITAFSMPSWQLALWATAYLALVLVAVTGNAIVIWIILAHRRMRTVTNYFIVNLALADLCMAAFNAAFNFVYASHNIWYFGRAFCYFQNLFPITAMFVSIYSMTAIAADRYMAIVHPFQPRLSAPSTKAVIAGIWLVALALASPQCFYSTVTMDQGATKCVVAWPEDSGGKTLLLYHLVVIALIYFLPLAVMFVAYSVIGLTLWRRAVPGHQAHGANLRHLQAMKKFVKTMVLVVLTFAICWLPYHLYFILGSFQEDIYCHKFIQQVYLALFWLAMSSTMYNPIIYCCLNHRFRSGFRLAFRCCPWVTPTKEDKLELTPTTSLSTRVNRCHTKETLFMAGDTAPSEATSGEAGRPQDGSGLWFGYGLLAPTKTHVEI

Neuromedin-K receptor = target: T2, Neuromedin-K receptor (Homo sapiens, UniProt P29371); assay: Tested for inhibition of human Tachykinin receptor 3
T2 sequence (P29371 whole entry): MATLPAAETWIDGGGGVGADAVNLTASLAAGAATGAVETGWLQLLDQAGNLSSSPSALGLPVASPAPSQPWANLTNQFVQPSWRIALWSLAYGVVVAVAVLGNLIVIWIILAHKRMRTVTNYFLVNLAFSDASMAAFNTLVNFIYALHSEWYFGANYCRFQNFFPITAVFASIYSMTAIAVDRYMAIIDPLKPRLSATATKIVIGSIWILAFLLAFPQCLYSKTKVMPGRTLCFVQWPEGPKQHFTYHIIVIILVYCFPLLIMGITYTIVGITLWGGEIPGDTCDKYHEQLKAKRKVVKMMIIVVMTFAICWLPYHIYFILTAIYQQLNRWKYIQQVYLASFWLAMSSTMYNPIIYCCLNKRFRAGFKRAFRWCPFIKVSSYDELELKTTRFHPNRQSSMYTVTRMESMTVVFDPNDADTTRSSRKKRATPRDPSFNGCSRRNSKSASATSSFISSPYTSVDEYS

Substance-P receptor = Substance-P receptor (Homo sapiens, UniProt P25103); assay: Displacement of [125I]- Substance P from human Neurokinin 1 (hNK1) receptor expressed in CHO cells; assay type: cell-based
Substance-P receptor, sequence (P25103 whole entry): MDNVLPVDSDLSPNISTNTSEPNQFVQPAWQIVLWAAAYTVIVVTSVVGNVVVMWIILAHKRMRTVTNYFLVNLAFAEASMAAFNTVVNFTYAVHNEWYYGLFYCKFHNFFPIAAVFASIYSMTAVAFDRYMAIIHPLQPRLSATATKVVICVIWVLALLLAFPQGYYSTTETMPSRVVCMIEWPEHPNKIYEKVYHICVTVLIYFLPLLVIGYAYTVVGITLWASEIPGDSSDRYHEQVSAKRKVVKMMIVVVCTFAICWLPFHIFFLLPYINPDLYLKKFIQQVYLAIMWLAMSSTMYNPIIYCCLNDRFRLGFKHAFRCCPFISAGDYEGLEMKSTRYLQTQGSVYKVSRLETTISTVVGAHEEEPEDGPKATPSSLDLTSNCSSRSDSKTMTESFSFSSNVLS

[4] = Inhibition of [3H]diltiazem binding to L-type calcium channel of rabbit skeletal muscle at 5 uM; assay type: functional; conditions: Oryctolagus cuniculus, Muscle tissue

pKa [1]: 5.4
SMILES: NC(=O)CN1CCC[C@H](OCc2cc(C(F)(F)F)cc(C(F)(F)F)c2)[C@@H]1c1ccccc1
inhibition at 30 µM [2]: 16%

IC50 [3]: 760 nM
IC50 (Substance-K receptor): > 1000 nM
IC50 (Neuromedin-K receptor): > 1000 nM
IC50 (Substance-P receptor): 0.87 nM
SMILES: FC(F)(F)c1cc(CO[C@H]2CCCN[C@H]2c2ccccc2)cc(C(F)(F)F)c1

SMILES: O=C(O)CN1CCC[C@H](OCc2cc(C(F)(F)F)cc(C(F)(F)F)c2)[C@@H]1c1ccccc1
inhibition at 5 µM [4]: 7%

SMILES: COC(=O)C(=O)N1CCC[C@H](OCc2cc(C(F)(F)F)cc(C(F)(F)F)c2)[C@@H]1c1ccccc1
inhibition at 5 µM [4]: 0%

IC50 [3]: 720 nM
SMILES: CN1CCC[C@H](OCc2cc(C(F)(F)F)cc(C(F)(F)F)c2)[C@@H]1c1ccccc1

SMILES: CNC(=O)CN1CCC[C@H](OCc2cc(C(F)(F)F)cc(C(F)(F)F)c2)[C@@H]1c1ccccc1
inhibition at 5 µM [4]: 0%

IC50 (Substance-P receptor): 25 nM
SMILES: NC(=O)C(=O)N1CCC[C@H](OCc2cc(C(F)(F)F)cc(C(F)(F)F)c2)[C@@H]1c1ccccc1
inhibition at 5 µM [4]: 0%

SMILES: CC(=O)N1CCC[C@H](OCc2cc(C(F)(F)F)cc(C(F)(F)F)c2)[C@@H]1c1ccccc1
inhibition at 5 µM [4]: 0%

SMILES: NC(=O)CCCN1CCC[C@H](OCc2cc(C(F)(F)F)cc(C(F)(F)F)c2)[C@@H]1c1ccccc1
inhibition at 5 µM [4]: 98%

SMILES: CN(C)C(=O)CN1CCC[C@H](OCc2cc(C(F)(F)F)cc(C(F)(F)F)c2)[C@@H]1c1ccccc1
inhibition at 5 µM [4]: 0%

IC50 [3]: 4.1 nM
SMILES: FC(F)(F)c1cc(CO[C@H]2CCCN(Cc3ccccc3)[C@H]2c2ccccc2)cc(C(F)(F)F)c1

IC50 [3]: 26 nM
SMILES: COC(=O)CN1CCC[C@H](OCc2cc(C(F)(F)F)cc(C(F)(F)F)c2)[C@@H]1c1ccccc1

pKa [1]: 6.5
SMILES: NC(=O)CCN1CCC[C@H](OCc2cc(C(F)(F)F)cc(C(F)(F)F)c2)[C@@H]1c1ccccc1
inhibition at 5 µM [4]: 98%

IC50 (Substance-P receptor): 227 nM
SMILES: COc1ccccc1CN[C@H]1CCCN(CC(N)=O)[C@H]1c1ccccc1 (racemic)
